# Assay: Fatty acid composition in the livers of rats fed DHA-containing oil (Example 2)
# Format: in vivo, Wistar rats
# Conditions: rat liver, versus control group
# Description: Four-week-old male Wistar rats were initially raised for one week, and then divided into 2 groups described below.
# perilla oil: safflower oil=7:3
# rapeseed oil: DHA ethyl ester=3:2
# For 4 weeks, the rats were fed experimental diets prepared by mixing 5% of the indicated oils for each of the groups to the basal feed.
# The livers were excised from the raised rats of both groups, and lipids were extracted by the Folch method and upon conversion to the methyl ester, the amount of each fatty acid was analyzed by gas chromatography.
smiles,measurement,value
"CCC=CCC=CCC=CCC=CCC=CCC=CCCC(=O)O [DHA, 4,7, 10, 13, 16, 19-docosahexaenoic acid]",effect on the proportion of ARA in the liver (in words),significant decrease in the proportion of ARA

# — US6596766B1, “Utilization of material containing docosapentaenoic acid” (Suntory Limited, priority 1999, dated 2003)
